Assay results from PMC9780326, “Venom composition and pain-causing toxins of the Australian great carpenter bee Xylocopa aruana” (Scientific Reports, 2022).
Where two headings read alike, the source gives them in different places. No end group written: not given here.

Tests used:
[1] = cited from earlier work
Source text: By far the most studied bee venom is that of the Western honeybee Apis mellifera. Its venom is dominated by a 26-residue cysteine-free amphipathic peptide known as melittin which makes up 40–60% of the dry weight of the venom. Another major components is venom phospholipase-A2 (PLA2; 10–12% dry weight), with smaller amounts of histamine (5–10%), venom hyaluronidase (1–2%) and the small disulfide-rich peptides apamin (3%) and mast cell-degranulating (MCD)-peptide (2%)[4]. Other reported components are present in trace amounts.

HEK293AD cells = test: Whole-cell patch-clamp, leak current in HEK293AD cells (QPatch 16X); assay type: cell-based
Protocol: The mature peptide of XYTX1-Xa1a shares a similar primary structure with Xac-1, Xac-2 and melectin. […] We hypothesised that XYTX1-Xa1a would share the same activity. We tested, by whole-cell patch-clamp electrophysiology, the capacity of XYTX1-Xa1a to directly induce leak currents in cell membranes. For these experiments we used HEK293AD cells, which lack appreciable expression of the ion channels found in neurons. At 4 min after application of XYTX1-Xa1a (30 μM) we recorded leak currents at test potentials ranging from − 60 to + 60 mV in 10-mV increments from a holding potential of 0 mV every 6 s. At + 60 mV, we recorded currents of 3.3 ± 0.6 nA (mean ± SEM, n = 6 cells) compared with 0.08 ± 0.02 nA (n = 5 cells) for time-matched negative controls (application of extracellular solution (ECS)) (Fig. 3a–c).
(a) Representative current traces in HEK293AD cells at voltages of − 60 to + 60 mV (10 mV steps) acquired before application and 2 min after application of (a) extracellular solution (ECS) or (b) 30 μM XYTX1-Xa1a. […] Data are expressed as mean ± SEM (n = 5–6 cells) and fitted to a simple linear regression. […]
HEK293AD cells (American Type Culture Collection) were cultured as previously described. […] From a holding potential of 0 mV each recorded cell was subjected to a series of 50-ms voltage pulses that ranged from − 60 to + 60 mV in 10-mV increments. […]

mice [2] = test: Paw swelling (paw thickness) after intraplantar injection; assay type: in vivo, male C57BL/6J mice; conditions: 200 pmol + venom PLA2 (20 pmol)
mice [3] = assay type: in vivo, male C57BL/6J mice; conditions: for pain behaviours on co-injection with venom PLA2: 200 pmol + venom PLA2 (20 pmol); for spontaneous pain behaviours: 200 pmol alone, 20 µL
F11 cells = assay type: cell-based, mouse neuroblastoma × rat DRG cell line; conditions: FLIPR, Calcium 4; peptide in PSS + 0.1% BSA, 300 s; mean ± SEM, n = 6; read-out: EC50, increase of [Ca2+]i in F11 cells
Protocol: F11 (mouse neuroblastoma × DRG neuron hybrid; European Collection of Authenticated Cell Cultures) were cultured as previously described. Cells were maintained on Ham’s F12 media supplemented with 10% FBS, 100 µM hypoxanthine, 0.4 µM aminopterin, and 16 µM thymidine (Hybri-Max, Sigma Aldrich). 384-well imaging plates (Corning, Lowell, MA, USA) were seeded 24 h prior to calcium imaging, resulting in ~ 90% confluence at the time of imaging. Cells were loaded for 30 min at 37 °C with Calcium 4 assay component A in physiological salt solution (PSS; 140 mM NaCl, 11.5 mM D-glucose, 5.9 mM KCl, 1.4 mM MgCl2, 1.2 mM NaH2PO4, 5 mM NaHCO3, 1.8 mM CaCl2, 10 mM HEPES) according to the manufacturer’s instructions (Molecular Devices, Sunnyvale, CA). Ca^2+ responses were measured using a FLIPR^TETRA fluorescent plate reader equipped with a CCD camera (Ex: 470 to 490 nm, Em: […]) (Molecular Devices, Sunnyvale, CA). Signals were read every second for 10 s before, and 300 s after, the addition of peptide (in PSS supplemented with 0.1% BSA).
Data were plotted and analysed using Prism v9.0.0 (GraphPad Software, San Diego, CA, USA). For calcium imaging experiments of mouse DRG neurons and F11 cells, treatment groups were compared using unpaired t-tests. […]

[4] = test system: mouse dorsal root ganglion (DRG) cells; test: Calcium imaging assay of mouse DRG neurons; assay type: cell-based
Protocol: Figure 5 Pain-causing effects of X. aruana venom components. (a,b) Application of XYTX1-Xa1a (10 μM) to DRG cells produced an immediate and sustained, non-cell-specific increase in [Ca^2+]i. (c) Potency of XYTX1-Xa1a and melittin in F11 cells, as monitored by changes in [Ca^2+]i. (d–f) The increase in [Ca^2+]i caused by XYTX1-Xa1a was potentiated by the presence of venom PLA2 (1 µM), but not XYTX2-Xa2a (1 μM). **P < 0.01 (unpaired t-test). […] Data are expressed as mean ± SEM (n = 3–6). […] Data are expressed as mean ± SEM (n = 3–6). *P < 0.05; **P < 0.01; ****P < 0.0001 (one way-ANOVA with Tukey’s multiple comparisons).
DRG cells were isolated from 4- to 6-week-old-male C57BL/6 mice that were purchased from the Animal Resources Centre (WA, Australia). DRGs were dissociated, then cells were plated in Dulbecco’s Modified Eagle’s Medium (DMEM; Gibco, MD, USA) containing 10% fetal bovine serum (FBS) (Assaymatrix, VIC, Australia) and penicillin/streptomycin (Gibco) on a 96-well poly-D-lysine-coated culture plate (Corning, ME, USA) and maintained overnight. Cells were loaded with Fluo-4 AM calcium indicator, according to the manufacturer’s instructions (ThermoFisher Scientific, MA, USA). After loading (1 h), the dye-containing solution was replaced with assay solution (1× Hanks’ balanced salt solution, 20 mM HEPES). Images were acquired at 10× objective at 1 frame/s (excitation 485 nm, emission 521 nm). Fluorescence corresponding to [Ca^2+]i of ~ 250 cells per experiment was monitored in parallel using an Nikon Ti-E Deconvolution inverted microscope, equipped with a Lumencor Spectra LED Lightsource. Baseline fluorescence was monitored for 30 s. At 30 s, assay solution was replaced with either assay solution, or assay solution containing venom PLA2 (1 µM) or XYTX2-Xa2a (1 µM), then at 1 min with XYTX1-Xa1a (in assay solution ± venom PLA2 (1 µM) or XYTX2-Xa2a (1 µM)) and monitored for 2 min before being replaced with assay solution and then KCl (30 mM; positive control). Experiments involving the use of mouse tissue were approved by the University of Queensland Animal Ethics Committee (UQ AEC; approval number TRI/IMB/093/17).
Data were plotted and analysed using Prism v9.0.0 (GraphPad Software, San Diego, CA, USA). For calcium imaging experiments of mouse DRG neurons and F11 cells, treatment groups were compared using unpaired t-tests. For analysis of spontaneous pain, sum of pain behaviour counts at 30 min of treatment groups were compared using one-way ANOVA with Tukey’s multiple comparisons test. Statistical significance was defined as P < 0.05. All data are presented as mean ± SEM.

mice [5] = assay type: in vivo, male C57BL/6J mice
[6] = test system: mammalian small conductance calcium-activated potassium (KCa, SK) channel KCa2.2; conditions: cited from earlier work
Source text: XYTX2-Xa2a is similar in sequence to Bombus and Apis MCD-peptides and apamin. Apamin is a blocker of the mammalian small conductance calcium-activated potassium (KCa, SK) channel KCa2.2[20], while Apis MCD peptide is a blocker of Shaker-like voltage-gated potassium (KV) channels KV1.1 and KV1.2[21]. We hypothesised that XYTX2-Xa2a might share similar activity. Thus, we tested XYTX2-Xa2a for activity on human KV1.1, KV1.2, KV1.3, KCa2.1 and KCa2.2.

[7] = test system: Shaker-like voltage-gated potassium (KV) channel KV1.2; conditions: cited from earlier work
[8] = test system: Shaker-like voltage-gated potassium (KV) channel KV1.1; conditions: cited from earlier work

CC[C@H](C)[C@H](NC(=O)CN)C(=O)NCC(=O)N[C@@H](C)C(=O)N[C@H](C(=O)N[C@@H](CC(C)C)C(=O)N[C@@H](CCCCN)C(=O)N[C@H](C(=O)N[C@@H](CC(C)C)C(=O)N[C@H](C(=O)N[C@H](C(=O)NCC(=O)N[C@@H](CC(C)C)C(=O)N1CCC[C@H]1C(=O)N[C@@H](C)C(=O)N[C@@H](CC(C)C)C(=O)N[C@H](C(=O)N[C@@H](CO)C(=O)N[C@@H](Cc1c[nH]c2ccccc12)C(=O)N[C@H](C(=O)N[C@@H](CCCCN)C(=O)N[C@@H](CCCNC(=N)N)C(=O)N[C@@H](CCCCN)C(=O)N[C@@H](CCCNC(=N)N)C(=O)N[C@@H](CCC(N)=O)C(=O)N[C@@H](CCC(N)=O)C(N)=O)[C@@H](C)CC)[C@@H](C)CC)[C@@H](C)O)[C@@H](C)O)C(C)C)C(C)C [melittin]
pore formation [1]: can form pores in cell membranes | leak current in HEK293AD cells (HEK293AD cells; 10 μM melittin, 2 min after addition, n = 5 cells, Fig. S4): causes a leak current in HEK293AD cells | paw swelling (mice [2]): caused paw swelling | pain behaviours on co-injection with venom PLA2 (mice [3]): potentiated by co-injection with 20 pmol venom PLA2 | spontaneous pain behaviours (mice [3]; shallow intraplantar): caused spontaneous pain behaviours | EC50 (F11 cells): 1.2 ± 0.1 µM

GFLSILKKLPLILKHLP-NH2 [XYTX1-Xa1a]
leak current at + 60 mV (HEK293AD cells; 30 μM, 4 min after application, holding potential 0 mV, mean ± SEM, n = 6 cells, negative control ECS 0.08 ± 0.02 nA (n = 5 cells)): 3.3 ± 0.6 nA | paw swelling (mice [2]): caused paw swelling | neurons with increase of [Ca2+]i ([4]; 10 μM (Fig. 5 legend), alone, mean ± SEM): 49.4 ± 3.2% | neurons activated, in the presence of XYTX2-Xa2a ([4]; with XYTX2-Xa2a (1 μM), mean ± SEM): 45.8 ± 5.5% | cell lysis in the presence of venom PLA2 ([4]; with venom PLA2 (1 µM), leakage of dye into extracellular media): increased cell lysis | neurons activated, in the presence of venom PLA2 ([4]; with venom PLA2 (1 µM), mean ± SEM): 93.2 ± 6.5% | pain behaviours on co-injection with venom PLA2 (mice [3]): increased (frequency and duration) | spontaneous pain behaviours (mice [3]; shallow intraplantar): caused spontaneous pain behaviours | EC50 (F11 cells): 5.2 ± 0.7 µM

apamin: A. mellifera apamin (Uniprot: P01500), purchased from Alomone labs (CNCKAPETALCARRCQQH; UniProt P01500 28-45, looked up)
pain behaviour counts versus control (mice [3]; 2 pmol alone, shallow intraplantar): not different to control | paw-withdrawal threshold to a mechanical stimulus versus negative control (saline) (mice [5]; 2 pmol/paw intraplantar, 1 and 4 h): no difference to negative control (saline) injection | block of mammalian KCa2.2 [6]: blocker

MCD-peptide: mast cell-degranulating (MCD)-peptide of A. mellifera (Uniprot: P01499), purchased from Alomone labs (IKCNCKRHVIKPHICRKICGKN; UniProt P01499 28-49, looked up)
block of KV1.2 [7]: blocker | block of KV1.1 [8]: blocker | pain behaviour counts versus control (mice [3]; mouse, in vivo): not different to control | paw-withdrawal threshold to a mechanical stimulus versus negative control (saline) (mice [5]; mouse, in vivo): no difference to negative control (saline) injection
